Patent publication US9932637B2, “Genetic polymorphisms associated with cardiovascular disorders and drug response, methods of detection and uses thereof” (CELERA CORPORATION, priority 2003, dated 2018)

System: patients with prior myocardial infarction (CARE study)
Experiment: CARE: association of SNPs with pravastatin treatment in cardiovascular events prevention (logistic regression, odds ratio pravastatin vs placebo by genotype; Table 8)
Type: in vivo, human
Settings: for Definite Nonfatal MI, n/total (%) / Fatal/Nonfatal MI (def & prob), n/total (%) / MI (Fatal/Nonfatal), n/total (%) / Nonfatal MI (def & prob), n/total (%): BCL2A1 hCV7509650, All Patients
Source text: In order to identify genetic markers associated with acute coronary events (e.g. MI, stroke, unstable angina, congestive heart failure, etc.) or response to statin treatment for the prevention of coronary events, samples from the Cholesterol and Recurrent Events (CARE) study (a randomized multicentral double-blinded trial on secondary prevention of acute coronary events with pravastatin) (Sacks et al., 1991, Am. J. Cardiol. 68: 1436-1446) were genotyped. A well-documented myocardial infarction (MI) was one of the enrollment criteria for entry into the CARE study. Patients were enrolled in the CARE trial from 80 participating study centers. […] Patients were randomized to receive either 40 mg of pravastatin once daily or a matching placebo. The primary endpoint of the trial was death from coronary heart disease and the median duration of follow-up was 5.0 years (range, 4.0 to 6.2 years). […] Secondary endpoints of other related cardiovascular or metabolic disease events, and changes in clinical variables were also recorded in pravastatin-treated and placebo groups. All individuals included in the study had signed a written informed consent form and the study protocol was approved by the respective Institutional Review Boards (IRBs).
For genotyping SNPs in CARE patient samples, DNA was extracted from blood samples using conventional DNA extraction methods such as the QIA-amp kit from Qiagen. Genotypes were obtained on an ABI PRISM® 7900HT Sequence Detection PCR system (Applied Biosystems, Foster City, Calif.) by kinetic allele-specific PCR, similar to the method described by Germer et al. (Germer S., Holland M. J., Higuchi R. 2000, Genome Res. 10: 258-266).
Statistical analysis for association of SNPs with pravastatin treatment in cardiovascular events prevention (Table 8) was carried out using an overall logistic regression model that included an intercept, a parameter for the effect of a genotype containing two rare alleles versus a genotype containing no rare alleles, a parameter for the effect of a genotype containing one rare allele versus a genotype containing no rare alleles, a parameter for the effect of use of pravastatin versus the use of placebo, and parameters for the interaction effects between SNP genotypes and pravastatin use. The test of the overall model is a chi-square test with two degrees of freedom for analyses containing all three genotypes, and one degree of freedom for analyses containing two genotypes.
Effect sizes were estimated through odds ratios (pravastatin group versus placebo) for carriers of each genotype (groups of 0, 1, and 2 minor allele carriers). The effect was considered to be significant if p-value for testing whether any of the interactions between SNP genotypes and pravastatin use were <0.05. […] Odds ratios less than one indicate that the specific SNP allele has a protective effect and odds ratios greater than one indicate that the specific SNP allele has an adverse effect.

[1] = CCL4 hCV12120554, All Patients, 0 Rare Alleles, Prava arm
[2] = CCL4 hCV12120554, All Patients, 1 Rare Allele, Prava arm

## CC[C@H](C)C(=O)O[C@H]1C[C@H](O)C=C2C=C[C@H](C)[C@H](CC[C@@H](O)C[C@@H](O)CC(=O)O)[C@H]21 [pravastatin]
APOE hCV905013, All Patients, Nonfatal MI (Probable/Definite), 1 rare allele
  Odds ratio pravastatin vs placebo: 0.91
APOE hCV905013, All Patients, Nonfatal MI (Probable/Definite), 2 rare alleles
  Odds ratio pravastatin vs placebo: 0.49
0 Rare Alleles, Prava arm
  Definite Nonfatal MI, n/total (%): (6.3%)
  Fatal/Nonfatal MI (def & prob), n/total (%): (8.7%)
  MI (Fatal/Nonfatal), n/total (%): (9.1%)
  Nonfatal MI (def & prob), n/total (%): (8.1%)
1 Rare Allele, Prava arm
  Definite Nonfatal MI, n/total (%): (7.9%)
  Fatal/Nonfatal MI (def & prob), n/total (%): (11.4%)
  MI (Fatal/Nonfatal), n/total (%): (11.4%)
  Nonfatal MI (def & prob), n/total (%): (10.2%)
2 Rare Alleles, Prava arm
  Definite Nonfatal MI, n/total (%): (3.9%)
  Fatal/Nonfatal MI (def & prob), n/total (%): (6.9%)
  MI (Fatal/Nonfatal), n/total (%): (6.9%)
  Nonfatal MI (def & prob), n/total (%): (6.9%)
BCL2A1 hCV7509650, All Patients, Definite Nonfatal MI, 0 rare alleles
  Odds ratio pravastatin vs placebo: 0.55
BCL2A1 hCV7509650, All Patients, Definite Nonfatal MI, 1 rare allele
  Odds ratio pravastatin vs placebo: 1.09
BCL2A1 hCV7509650, All Patients, Definite Nonfatal MI, 2 rare alleles
  Odds ratio pravastatin vs placebo: 0.35
BCL2A1 hCV7509650, All Patients, Fatal/Nonfatal MI (def & prob), 0 rare alleles
  Odds ratio pravastatin vs placebo: 0.51
BCL2A1 hCV7509650, All Patients, Fatal/Nonfatal MI (def & prob), 1 rare allele
  Odds ratio pravastatin vs placebo: 1.00
BCL2A1 hCV7509650, All Patients, Fatal/Nonfatal MI (def & prob), 2 rare alleles
  Odds ratio pravastatin vs placebo: 0.46
BCL2A1 hCV7509650, All Patients, MI (Fatal/Nonfatal), 0 rare alleles
  Odds ratio pravastatin vs placebo: 0.53
BCL2A1 hCV7509650, All Patients, MI (Fatal/Nonfatal), 1 rare allele
  Odds ratio pravastatin vs placebo: 0.99
BCL2A1 hCV7509650, All Patients, MI (Fatal/Nonfatal), 2 rare alleles
  Odds ratio pravastatin vs placebo: 0.46
BCL2A1 hCV7509650, All Patients, Nonfatal MI (def & prob), 0 rare alleles
  Odds ratio pravastatin vs placebo: 0.52
BCL2A1 hCV7509650, All Patients, Nonfatal MI (def & prob), 1 rare allele
  Odds ratio pravastatin vs placebo: 1.09
BCL2A1 hCV7509650, All Patients, Nonfatal MI (def & prob), 2 rare alleles
  Odds ratio pravastatin vs placebo: 0.56
[1]
  Cardiovascular Mortality, n/total (%): (4.0%)
  Fatal Atherosclerotic Cardiovascular Disease, n/total (%): (4.0%)
  Fatal Coronary Heart Disease, n/total (%): (3.5%)
  Fatal/Nonfatal Atherosclerotic CV Disease, n/total (%): (34.4%)
  Total Coronary Heart Disease Events, n/total (%): (30.5%)
  Total Mortality, n/total (%): (6.0%)
[2]
  Cardiovascular Mortality, n/total (%): (2.5%)
  Fatal Atherosclerotic Cardiovascular Disease, n/total (%): (2.2%)
  Fatal Coronary Heart Disease, n/total (%): (2.2%)
  Fatal/Nonfatal Atherosclerotic CV Disease, n/total (%): (29.9%)
  Total Coronary Heart Disease Events, n/total (%): (25.1%)
  Total Mortality, n/total (%): (4.0%)
CCL4 hCV12120554, All Patients, Cardiovascular Mortality, 0 rare alleles
  Odds ratio pravastatin vs placebo: 1.30
CCL4 hCV12120554, All Patients, Cardiovascular Mortality, 1 rare allele
  Odds ratio pravastatin vs placebo: 0.31
CCL4 hCV12120554, All Patients, Fatal Atherosclerotic Cardiovascular Disease, 0 rare alleles
  Odds ratio pravastatin vs placebo: 1.30
CCL4 hCV12120554, All Patients, Fatal Atherosclerotic Cardiovascular Disease, 1 rare allele
  Odds ratio pravastatin vs placebo: 0.28
CCL4 hCV12120554, All Patients, Fatal Coronary Heart Disease, 0 rare alleles
  Odds ratio pravastatin vs placebo: 1.28
CCL4 hCV12120554, All Patients, Fatal Coronary Heart Disease, 1 rare allele
  Odds ratio pravastatin vs placebo: 0.31
CCL4 hCV12120554, All Patients, Fatal/Nonfatal Atherosclerotic CV Disease, 0 rare alleles
  Odds ratio pravastatin vs placebo: 0.86
CCL4 hCV12120554, All Patients, Fatal/Nonfatal Atherosclerotic CV Disease, 1 rare allele
  Odds ratio pravastatin vs placebo: 0.55
CCL4 hCV12120554, All Patients, Total Coronary Heart Disease Events, 0 rare alleles
  Odds ratio pravastatin vs placebo: 0.87
CCL4 hCV12120554, All Patients, Total Coronary Heart Disease Events, 1 rare allele
  Odds ratio pravastatin vs placebo: 0.55
CCL4 hCV12120554, All Patients, Total Mortality, 0 rare alleles
  Odds ratio pravastatin vs placebo: 1.17
CCL4 hCV12120554, All Patients, Total Mortality, 1 rare allele
  Odds ratio pravastatin vs placebo: 0.40
CCL11 hCV7449808, All Patients, 0 Rare Alleles, Prava, n/total 310/1025
  Total Coronary Heart Disease Events, n/total (%): (30.2%)
CCL11 hCV7449808, All Patients, 0 Rare Alleles, Prava, n/total 359/1025
  Fatal/Non-fatal Atherosclerotic CV Disease, n/total (%): (35.0%)
CCL11 hCV7449808, All Patients, 0 Rare Alleles, Prava, n/total 423/1025
  Hosp. for Cardiovascular Disease, n/total (%): (41.3%)
CCL11 hCV7449808, All Patients, 0 Rare Alleles, Prava, n/total 436/1025
  Total Cardiovascular Disease Events, n/total (%): (42.5%)
CCL11 hCV7449808, All Patients, 1 Rare Allele, Prava, n/total 127/448
  Total Coronary Heart Disease Events, n/total (%): (28.3%)
CCL11 hCV7449808, All Patients, 1 Rare Allele, Prava, n/total 139/448
  Fatal/Non-fatal Atherosclerotic CV Disease, n/total (%): (31.0%)
CCL11 hCV7449808, All Patients, 1 Rare Allele, Prava, n/total 176/448
  Hosp. for Cardiovascular Disease, n/total (%): (39.3%)
CCL11 hCV7449808, All Patients, 1 Rare Allele, Prava, n/total 181/448
  Total Cardiovascular Disease Events, n/total (%): (40.4%)
